# Measured values as given in US7989650B2, “Therapeutic delivery of carbon monoxide to extracorporeal and isolated organs” (hemoCORM Limited, priority 2002, dated 2011).
# Tests used:
# [1] = tested on: isolated hearts from male Lewis rats; assay: Ischaemia-reperfusion model in isolated Langendorff-perfused hearts; design: species or system rat
# Method: Isolated hearts from male Lewis rats (300-350 g) were perfused according to the Langendorff technique as previously described by our group. Briefly, hearts were rapidly excised and perfused at constant flow (11 ml/min) with Krebs-Henseleit buffer (in mM: 119 NaCl, 4.7 KCl, 2.5 CaCl2, 1.66 MgSO4, 24.9 NaHCO3, 1.18 KH2PO4, 5.55 glucose, 2.00 sodium pyruvate, 0.5 EGTA) bubbled with 95% O2 and 5% CO2 at 37° C. (pH 7.4). Coronary perfusion pressure (CPP) was continuously measured by a pressure transducer (Grass Instruments, Astromed, RI, USA) connected to the aortic cannula. A latex balloon filled with saline was inserted into the left ventricle through the atrium and connected by a catheter to a second pressure transducer. The balloon was inflated to provide an initial end-diastolic pressure (EDP) of 10 mmHg. Both transducers were connected to a computer and data were acquired with BioPac™ instrumentation and analyzed with the accompanying AcqKnowledge™ software (BIOPAC System Inc.). Left ventricular developed pressure (LVDP), heart rate (HR), maximal contraction (+dP/dt) and relaxation (−dP/dt) rates, CPP and EDP were continuously recorded throughout the period of perfusion.
# Isolated hearts were allowed to equilibrate at constant flow for 30 min and then made globally ischaemic by interrupting the buffer perfusion. Ischaemic hearts were kept at 37° C. in the water-jacketed chamber for 30 min and then reperfused for 60 min. All the hemodynamic parameters were continuously monitored throughout the experimental protocol as reported above. Krebs buffer was collected for 10 min from the pulmonary artery prior to the ischaemic event and in the last 10 min of reperfusion for creatine kinase (CK) analysis. At the end of reperfusion, hearts were stained to assess tissue viability using tetrazolium red. In additional experiments, hearts made ischaemic were infused for the first 10 min of reperfusion with CORM-3 or dCORM-3 (10 μM final concentration) via a syringe pump connected to the side arm of the aortic cannula. To assess a possible role of mitochondrial ATP-dependent potassium channels (KATP) in cardioprotection mediated by CORM-3, control hearts or hearts receiving CORM-3 were pre-treated for 10 min prior to ischaemia with […] (5-HD, 50 μM final concentration), a specific blocker of mitochondrial KATP.
# Hearts from each experimental group (n=5) were stained for tissue viability at the end of the reperfusion period. Hearts were perfused through a side arm of the aortic cannula for 20 min with tetrazolium red (3% w/v) in Krebs Henseleit buffer at 37° C. The tetrazolium salt stains the viable myocardium brick red, whereas the infarcted tissue remains unstained and appears white. After staining, hearts were removed and stored in 2% formalin in the dark prior to analysis. Hearts were carefully cut into 2-mm thick sections, scanned into a computer using an AGFA Arcus® II scanner and the total ischaemic size was determined by volumetric analysis software (Scion Image®, Scion Corporation, MA, USA). Cardiac muscle damage was assessed by measuring the release of creatine kinase (CK) into the perfusate using a commercially available spectrophotometric assay kit (DG147-A) from Sigma Diagnostic (Poole, Dorset).
# [2] = tested on: deoxymyoglobin (deoxy-Mb); assay: Detection of CO release: conversion of deoxymyoglobin to carbonmonoxy myoglobin (MbCO), spectrophotometric; type: physicochemical
# Method: The release of CO from CORM-3 or dCOMR-3 was assessed spectrophotometrically by measuring the conversion of deoxymyoglobin (deoxy-Mb) to carbonmonoxy myoglobin (MbCO) as previously described. The amount of MbCO formed was quantified by measuring the absorbance at 540 nm (extinction coefficient=[…]). Myoglobin solutions (66 μmol/L final concentration) were prepared fresh by dissolving the protein in 0.04 M phosphate buffer (pH 6.8). Sodium dithionite (0.1%) was added to convert myoglobin to deoxy-Mb prior to each reading.
# When CORM-3 was prepared in distilled water and then added to the phosphate buffer solution containing Mb, a spectrum characteristic of MbCO was rapidly detected (FIG. 1B).
# [3] = dissolved in DMSO; cited from earlier work
# [4] = tested on: deoxymyoglobin (deoxy-Mb); conditions: cited from earlier work
# [5] = tested on: pre-contracted aortic rings; conditions: cited from earlier work
# [6] = 10 μM infused for first 10 min of reperfusion, 30 min ischaemia, 60 min reperfusion
# [7] = at the end of reperfusion, 10 μM infused for first 10 min of reperfusion
# [8] = before ischaemia, hearts later reperfused with CORM-3
compound,measurement,setting,value
"NCC(=O)O.[CH+]=O.[CH+]=O.[CH+]=O.[Cl][Ru] [CORM-3, tricarbonylchloro-(glycinato)ruthenium(II)]","maximal rate of contraction (+dP/dt), after ischaemia-reperfusion",[1]; [6],3726±542 mmHg/s
same,"maximal rate of relaxation (−dP/dt), after ischaemia-reperfusion",[1]; [6],2207±258 mmHg/s
same,increase in left ventricular-developed pressure (LVDP) compared to baseline,"[1]; after 60 min reperfusion, 10 μM infused for first 10 min of reperfusion, 30 min global ischaemia",44%
same,increase in coronary perfusion pressure (CPP),[1]; [7],13±2.2 mmHg
same,increase in end diastolic pressure (EDP),[1]; [7],3±1.8 mmHg
same,"maximal rate of contraction (+dP/dt), baseline",[1]; [8],2099±99 mmHg/s
same,"maximal rate of relaxation (−dP/dt), baseline",[1]; [8],1432±149 mmHg/s
same,"creatine kinase (CK) activity in buffer, before ischaemia","[1]; buffer collected 10 min prior to ischaemia, hearts later reperfused with CORM-3",6.5±2.3 U/L
same,infarct size (tetrazolium red staining),"[1]; end of reperfusion, 10 μM infused for first 10 min of reperfusion",2.3±0.6%
same,"protective effects on myocardial contractility (LVDP, +dP/dt, −dP/dt) and on EDP and CPP increases, with 5-HD pre-treatment","[1]; hearts pre-treated 10 min prior to ischaemia with 5-HD 50 μM, CORM-3 10 μM at reperfusion",totally abolished
same,"creatine kinase (CK) activity in buffer, after reperfusion","[1]; last 10 min of reperfusion, 10 μM infused for first 10 min of reperfusion",19.9±5.3 U/L
same,CO liberated per mole of compound,"[2]; CORM-3 prepared in distilled water, added to phosphate buffer containing Mb",1 mol
same,formation of MbCO,"[2]; addition of 40 μM CORM-3 prepared in distilled water, myoglobin 66 μmol/L, 0.04 M phosphate buffer pH 6.8",36.4 ± 0.9 µM
same,ability to liberate CO (conversion of Mb to MbCO) after standing in water,"[2]; dissolved in water, left 24 h at room temperature",retained its full ability to liberate CO
same,stability / ability to release CO in Krebs-Henseleit buffer,"[2]; prepared in Krebs-Henseleit buffer, over time",gradually decomposed over time and lost its ability to release CO
"[C-]#[O+].[C-]#[O+].[C-]#[O+].[C-]#[O+].[C-]#[O+].[C-]#[O+].[Cl][Ru][Cl].[Cl][Ru][Cl] [[Ru(CO)3Cl2]2, Tricarbonyldichloro ruthenium(II) dimer]",CO liberation on dissolution,[3],CO is liberated into solution
"[Fe(SPh)2(2,2′-bipyridine)(CO)2]",release of CO to myoglobin in solution,[4],not to release CO to myoglobin in solution
same,dilatation of pre-contracted aortic rings,[5],capable of promoting dilatation of pre-contracted aortic rings
